The record followed here is PubChem BioAssay AID489006 (Sanford-Burnham Center for Chemical Genomics, 2010).

Active and inactive are the calls of the source. How the calls were made is not given here.

For the test, the system named is Jurkat NF-kB reporter, luminescence. Nature of the test: NF-kB reporter inhibition in Jurkat cells, dose response, selectivity assay for B-cell receptor NF-kB inhibitor project, cell-based, luminescence (AID 489006).

For `COc1ccc(-c2nsc(SCC(=O)Nc3cc(C)on3)n2)cc1`, the IC50 was > 80 µM (inactive).
In the case of `Cn1c(=NC(=O)CCl)sc2ccccc21` it was 1.18 µM.
`CCOc1ccc(/C=C2\SC(=S)N(CCCC(=O)NCCCN3CCOCC3)C2=O)cc1`: the IC50 is 0.52 µM.
Then `COc1ccc(-n2c(-c3ccc(Cl)cc3)c[n+]3c2CCc2ccccc2-3)cc1`, with 28.6 µM (inactive); and `C/C(=N\Nc1nc(Nc2ccccc2)nc(N2CCOCC2)n1)c1cccs1`, with > 80 µM (inactive).
In the case of `COc1ccc(-c2ccc(F)cc2)cc1[C@H]1[C@H]2C=CC[C@@H](C)[C@@H]2C(=O)N1Cc1ccccc1`, the IC50 was > 80 µM (inactive).
Take `Cc1ccoc1C(=O)Nc1ccc(CC(=O)O)cc1`: the IC50 is 0.26 µM.
Then `Cc1cc(C)cc(OCc2nnc(SCC(=O)c3ccccc3)o2)c1`, with > 80 µM (inactive); and `COc1ccccc1/C=C1\SC(=S)N(CCC(=O)NC2=NCCS2)C1=O`, with 28.3 µM (inactive).
Take `Cc1cccn2c(=O)c3cc(C(=O)NC4CCCCC4)c(=N)n(CCN4CCOCC4)c3nc12`: the IC50 was > 80 µM (inactive).
In the case of `CC(C)Cn1c([N+](=O)[O-])nc2c1c(=O)[nH]c(=O)n2C` it was 7.23 µM; in that of `COc1ccc(/C=C2\SC(=S)N(CCC(=O)Nc3cccc(O)c3)C2=O)cc1`, > 80 µM (inactive); in that of `C=CCOc1ccc(/C=C2\SC(=S)N(CCC(=O)O)C2=O)cc1`, under 0.16 µM.
Then `CCOc1ccc(S(=O)(=O)NCc2ccncc2)cc1NC(=O)c1ccccc1`, with > 80 µM (inactive); and `COc1ccc(-c2ccc(OC)c([C@H]3[C@H]4C=CC[C@@H](C)[C@@H]4C(=O)N3Cc3ccccc3)c2)cc1C`, with > 80 µM (inactive); and `C=CCOc1ccc(NC(=O)C(=O)NCCCn2ccnc2)cc1`, with > 80 µM (inactive).
Take `CCc1ccc(-c2nc(CSCC(=O)NC3CC3)c(C)o2)cc1`: the IC50 was 38.5 µM (inactive).
Take `CCn1c(=O)cc(SCC(=O)N2CCC3(CC2)OCCO3)c2ccccc21`: the IC50 was > 80 µM (inactive).
For the molecule `Cc1nc2cc(-c3cccc(F)c3)nn2c(C)c1CCC(=O)N1CCC2(CC1)OCCO2`, the IC50 is 20.7 µM (inactive).
`COc1ccc(-c2ccoc2)cc1[C@H]1[C@H]2C=CC[C@@H](C)[C@@H]2C(=O)N1Cc1ccccc1`: the IC50 is 50.4 µM (inactive).
`CCN(CC)c1ccc2cc(NC(=O)CCC(=O)O)c(=O)oc2c1`: the IC50 is 0.46 µM.
In the case of `N=c1ccn2c(n1)O[C@H]1[C@H](O)[C@@H](CO)O[C@H]12` it was 0.64 µM; in that of `CC(C)CCNC(=O)CCCOc1cc(=O)n(C)c2ccccc12`, 70.4 µM (inactive).
`Cc1cccc(C(=O)Nc2ccc(CC(=O)O)cc2)c1`: the IC50 was 7.41 µM.
As for `COc1ccc(-c2noc(N3CCC(C(=O)Nc4ccc(F)cc4F)CC3)n2)cc1`, the IC50 was > 80 µM (inactive).
Consider `CCNC(=O)CCc1nc(-c2ccc(C(C)(C)C)cc2)no1`, for which the IC50 was > 80 µM (inactive).
Then `C=C1C(=O)[C@@]23C[C@H]4[C@@H]5[C@@]6(C)CCC[C@@]57[C@@H]2[C@@H](O)[C@@H]1C[C@H]3[C@H]7N4C6`, with 2.85 µM; and `C[C@H]1CCC/C=C/C2C[C@H](O)CC2[C@H](O)/C=C/C(=O)O1` (some centres undefined), with > 80 µM (inactive).
In the case of `N=c1ccn2c(n1)OC1C(O)C(CO)OC12` (centres undefined) it was 2.21 µM.
As for `CCCN1C(=O)/C(=C/c2c(N3CCNC(=O)C3CC(=O)OCC)nc3c(C)cccn3c2=O)SC1=S` (centres undefined), the IC50 is 24.4 µM (inactive).
For the molecule `CC(=O)Nc1ccc(Nc2nc(-c3sc(NC(C)=O)nc3C)cs2)cc1`, the IC50 was 8.63 µM.
In the case of `CC1CCN(CCCNC(=O)COc2cc(=O)n(C)c3ccccc23)CC1` it was > 80 µM (inactive); in that of `CNC(=O)CSc1nc2nn(-c3ccccc3)c(=O)c-2c2n1CCCCC2`, > 80 µM (inactive); in that of `CCOC(=O)C1CCN(c2ncnc3c2cnn3-c2ccc(OC)cc2)CC1`, > 80 µM (inactive).
In the case of `C=CCn1c(O)c(C(CC)=NC(C)c2ccccc2)c(=O)[nH]c1=O` (centres undefined) it was 51.3 µM (inactive); in that of `O=C(CCCN1C(=O)/C(=C/c2ccccc2Cl)SC1=S)NNC(=O)c1ccc(Cl)cc1`, 2.04 µM; in that of `CCOc1ccc(-c2cc(CCCC(=O)NCc3ccco3)no2)cc1`, > 80 µM (inactive).
In the case of `COc1cc(-c2nc(C(=O)NCC3CCCO3)cc3c2[nH]c2ccccc23)cc(OC)c1OC` (centres undefined) it was 18 µM; in that of `O=C(NNC(=O)c1ccccc1O)c1ccc(Cl)c(S(=O)(=O)N2CCc3ccccc32)c1`, > 80 µM (inactive).
For the molecule `O=C(O)CCSc1nc2ccccc2s1`, the IC50 is 6.75 µM.
In the case of `Cc1c(CC(=O)NCCCC(=O)O)c(=O)oc2cc3c(cc12)CCC(C)(C)O3`, the IC50 was 4.17 µM.
For the molecule `Cc1ccc(C(=O)NNC(=O)CCCN2C(=O)/C(=C/c3ccccc3Cl)SC2=S)cc1`, the IC50 is 4.81 µM.
In the case of `Cc1cc(N(C)C)ccc1N=Nc1ccc(N)cc1` it was > 80 µM (inactive); in that of `COc1cc(NC(=O)c2cc3c(C)nc4ccccc4c3o2)cc(OC)c1OC`, > 80 µM (inactive).
Then `COc1ccc(C2=NCc3nnc(C)n3-c3ccc(Cl)cc32)cc1Cl`, with 36.4 µM (inactive); and `Cc1cc(C)c2nc(NC(=O)[C@@H](NC(=O)c3cccc(S(=O)(=O)N4CCOCC4)c3)C(C)C)sc2c1`, with 20.8 µM (inactive); and `O=C(C1CCC1)N1CCN(S(=O)(=O)c2ccc([N+](=O)[O-])cc2)CC1`, with > 80 µM (inactive).
In the case of `Cc1ccc(-c2cc(C(=O)NCCCN3CCOCC3)no2)cc1` it was 15.2 µM.
With `CCCCCOc1ccc(NC(=O)C(=O)NCCCn2ccnc2)cc1`, the IC50 is > 80 µM (inactive).
Then `COc1ccc2nc(Sc3c([N+](=O)[O-])nc(C)n3Cc3ccccc3)[nH]c2c1`, with 12.2 µM; and `CCOC(=O)c1nn(-c2ccccc2)c(C#N)c1NC(=O)c1nn(CC)cc1Br`, with > 80 µM (inactive).
As for `CCN1C(=O)c2cccc3c(S(=O)(=O)Nc4ccccc4)ccc1c23`, the IC50 was 48.9 µM (inactive).
Then `N=c1c2c(n(Cc3cccc(Cl)c3)c3c1CCC3)CCCC2`, with 27.6 µM (inactive).
Take `COc1ccc(/C=C/c2ccccc2)cc1[C@H]1[C@H]2C=CC[C@@H](C)[C@@H]2C(=O)N1Cc1ccccc1`: the IC50 was > 80 µM (inactive).
In the case of `CC(=O)c1cccc(S(=O)(=O)Nc2cc(C(F)(F)F)ccc2N2CCOCC2)c1` it was 62.2 µM (inactive); in that of `CCN(CC)S(=O)(=O)c1ccc(N2CCOCC2)c(NC(=O)c2[nH]c(C)c(C(C)=O)c2C)c1`, 47 µM (inactive); in that of `Cc1ccc(Nc2nc(N3CCOCC3)nc(N3CCOCC3)n2)cc1C`, > 80 µM (inactive).
In the case of `Cc1ccc(C)c(OCc2ccc(C(=O)NN)o2)c1`, the IC50 was > 80 µM (inactive).
In the case of `COc1ccc(CC(=O)Nc2cccc(-c3ccc4nnc(C)n4n3)c2)cc1` it was > 80 µM (inactive); in that of `O=C(NCCCN1CCOCC1)c1cc(-c2ccc(Br)cc2)on1`, 59.5 µM (inactive); in that of `Cn1c(=O)c2c(SCC(=O)Nc3ccccc3F)nc(-c3ccccc3F)nc2n(C)c1=O`, > 80 µM (inactive).
Regarding `Cc1cc(C)nc(Sc2ccc([N+](=O)[O-])cc2[N+](=O)[O-])n1`, the IC50 was 11.7 µM.
Then `CCn1c(=O)c2cc(C(=O)NCc3cccs3)sc2c2ccccc21`, with > 80 µM (inactive).
In the case of `CN(C)CCCN=Cc1c(-c2ccccc2)[nH]n(-c2nc3ccccc3s2)c1=O` it was 0.88 µM.
In the case of `CCOc1ccc(-c2cc(CCCC(=O)NCc3ccc(C)cc3)no2)cc1` it was 6.59 µM; in that of `COc1ccc2nc(C)cc(Sc3nc4ccccc4s3)c2c1`, 2.53 µM; in that of `Cc1csc(NC(=O)/C=C/c2ccc3c(c2)OCO3)n1`, > 80 µM (inactive).
With `Cc1c(CCC(=O)N2CCC(C(=O)O)CC2)c(=O)oc2cc3oc4c(c3cc12)CCCC4`, the IC50 is > 80 µM (inactive).
In the case of `CC(C)(C)c1ccc(-c2noc(CCC(=O)NCC3CCCO3)n2)cc1` (centres undefined) it was 0.23 µM; in that of `CCN(CC)c1ccc(/C=C2/C(=O)ON=C2C)cc1`, 19.3 µM; in that of `CC(C)(C)C(=O)/C(=C/c1ccncc1)n1cncn1`, 2.89 µM.
Then `C=CCOc1ccccc1CN(C(=O)CCl)c1ccc2c(c1)OCO2`, with 1.7 µM; and `COc1ccc(C(=O)Nc2nnc(SCC(=O)Nc3ccc(NC(C)=O)cc3)s2)c(OC)c1`, with > 80 µM (inactive); and `Cc1ccc(NC(=O)C2CCC(CNc3c(N4CCC(C)CC4)c(=O)c3=O)CC2)cc1F` (centres undefined), with > 80 µM (inactive).
On to `COc1ccc(/C=C\C(=O)O[C@@H]2C(O)C(O[C@@H]3OC(C)[C@H](O[C@@H]4OCC(O[C@H]5O[C@H](CO)[C@@H](O)C(O)C5O)C(O)C4O)C(O)C3O)[C@H](OC(=O)[C@]34CCC(C)(C)C[C@@H]3C3=CCC5[C@@]6(C)CC(O)C(O[C@@H]7OC(CO)C(O)[C@H](O)[C@H]7O)[C@@](C)(C(=O)O)C6CC[C@@]5(C)[C@]3(CO)CC4)O[C@H]2C)cc1` (some centres undefined), for which the IC50 is 2.88 µM.
In the case of `Cc1[nH]c2ccccc2c1/C=N/Nc1nc(Nc2ccc(F)cc2)nc(N2CCOCC2)n1` it was 20.9 µM (inactive); in that of `CCN(CC)CCCN=Cc1c(-c2ccccc2)[nH]n(-c2nc3ccccc3s2)c1=O`, 7.55 µM; in that of `CCOC(=O)c1cc2c(=O)n3ccccc3nc2n(CC(C)C)c1=NC(=O)c1c(-c2c(F)cccc2Cl)noc1C`, > 80 µM (inactive).
In the case of `Cn1cnc([N+](=O)[O-])c1Sc1ccc([N+](=O)[O-])cc1` it was 8.41 µM; in that of `COc1cc(-c2nc3ccc(N4CCN(C)CC4)cc3[nH]2)cc(OC)c1OC`, > 80 µM (inactive).
Turning to `COc1ccc(NS(=O)(=O)c2cc(NC(=O)c3cc(=O)c4ccccc4o3)ccc2OC)cc1`, the IC50 was > 80 µM (inactive).
In the case of `COc1cc(/C(C)=N\NC(N)=S)cc(OC)c1OC` it was 72.5 µM (inactive); in that of `CCOc1ccc(/C=C2\SC(=S)N(CCC(=O)Nc3cccc(C(=O)O)c3)C2=O)cc1`, > 80 µM (inactive); in that of `C#CCN(Cc1ccccc1)S(=O)(=O)C=C`, 9.39 µM.

As usually defined, the IC50 is the point on the concentration scale where inhibition reaches its midpoint.
